Data set [1] has as its system inflammatory peritoneal macrophages. Description: Cytokine release by LPS-stimulated inflammatory peritoneal macrophages. In kind it is cell-based. The settings on record: stimulation with LPS in vitro. The source says:
Because of the focus on lung fibrosis, we examined the effects of irradiation on macrophages in terms of their ability to modulate fibroblast responses. […] In addition, BCN-512 blocks the ability of irradiated macrophages to stimulate fibroblast proliferation. The ability of BCN-512 to reprogram macrophages is likely highly relevant to its ability to mitigate radiation induced fibrosis and tissue damage

Data set [2] concerns human A549 adenocarcinoma cells. Put plainly: A549 xenograft lung colony model in nude mice. In kind it is in vivo. As to conditions: 20 mg/kg sc once daily for 5 days, with or without 4 Gy LTI x 3, day 72. The method, then:
LTI alone decreased the number of co […] lonies by 40%. Extensive analysis of the drug doses that would be optimal for exerting effects on tumors in the radiation setting are still needed, but there is no evidence for enhanced tumor growth as a result of radiation treatment with drug, and in fact exactly the opposite. […] Thirty-two nude mice were injected intravenously with 5×10^4 human A549 adenocarcinoma cells on day 1. The drug was administered starting at day 3; 20 mg/kg BCN512 was injected subcutaneously once daily for 5 days. Fractionated radiation was started on day 4, with 4 Gy LTI administered daily for 3 days. Tumors developed very slowly, so the mice were sacrificed on day 72 and the number of nodules in the lungs were counted. There was considerable variation in the irradiated group, with a tendency for lung irradiation to increase the number of tumor colonies. This is not a unique observation that may be ascribed to radiation-induced myeloid cell mobilization.

For data set [3], the system named is WINT target gene expression. Put plainly: Wnt target gene expression. The settings on record: FIG. 23.
Data set [4] deals with lung organoids. Description: Ex vivo 3D lung organoid culture after radiation. As to conditions: 6 Gy; 28 μM at 1-hour post-radiation exposure. In kind it is cell-based, mice. The method, then: 512 induces lung organoid growth in ex vivo cultures: Ex vivo 3D organoid cultures are one of the best models for studying stem cell growth and proliferation because organoid growth depends primarily on the presence of stem cells. For these experiments, mice were euthanized by CO2 or ketamine-xylazine administration and the abdominal aorta was exposed and exsanguinated. The thoracic cavity was opened, and the lungs were exposed. Blood was flushed from the lung vasculature by perfusion with 10 mL of sterile cold PBS through the right ventricle. The trachea was cannulated with a 24-G cannula, and 1.2 mL of 10 U dispase (BD) was then injected into the lungs. The trachea and lungs were removed from the chest en-block and incubated for 20 minutes at room temperature (RT). The lung lobes were dissected from the trachea, heart, and rest of mediastinal structures and then finely minced and incubated for 10 more min with 2 mL of dispase. The suspension was passed through an 18-G needle 4-5 times to help open the lung compartments. If sticky DNA was detected, 10-30 μL of 4 mg/mL DNase I (Sigma) was added to the cell suspension and incubated at 37° C. for 5 min. The cells were filtered through a 100-μ cell strainer (BD Biosciences) to obtain single-cell suspensions (SCS). Red blood cells were lysed using RBC lysing buffer. […]

Data set [5] concerns radiation dermatitis (erythema, edema). Put plainly: Draize scoring of dermal radiation sites, dermal dosing 10 mg/mL Day 0 to 6. In kind it is in vivo. As to conditions: Avg of Days 1-6 and 8.
The nature of data set [6]: Pharmacokinetic profile after sc injection. The settings on record: mouse, plasma; C57BL/6 male mice, 10 mg/kg sc, low % deoxycholate formulation. In kind it is in vivo. The method, then:
FIG. 6A: Pharmacokinetic profile for C57BL/6 male mice receiving a 10 mg/kg sc injection of 512 in a low % deoxycholate formulation.
Because the side effects of Cremophor are undesirable for an MCM candidate, alternative formulations are being tested for further development of 512 for the lung DEARE indication.

Data set [7] has as its system canonical Wnt-β catenin signaling. Put plainly: TCF/LEF luciferase reporter assay in HEK293 cells. In kind it is cell-based. As to conditions: 28 μM, 24 h, vs vehicle treated cells. The method, then:
LiCl (10 mM) treatment was used as positive control for luciferase activity. Luciferase activity was determined after 24 h using a Dual-Luciferase® Reporter Assay System (Promega) as per manufacturer's protocol. HEK293 cells containing a FOPFlash construct were used as a negative control.

Data set [8] concerns bone marrow hematopoietic stem cells (HSCs). Put plainly: Total body irradiation survival (hematopoietic suppression). In kind it is in vivo, C3H/HeN mice. The method, then: FIG. 8A-C: (A) Kaplan Meier Plot of Male C3H/HeN mice 7.75Gy 30 Day TBI (n=30) 50 mg/kg BCN057. (B). Kaplan Meier Plot of Female C3H/HeN mice 7.75Gy 30 Day TBI (n=10) 25 mg/kg BCN057. (C) Cytokine Profile in Plasma Male C3H/HeN mice 7.75Gy TBI Day 8 receiving BCN057.
7.75 Gy radiation is used to ablate bone marrow hematopoietic stem cells (HSCs) in these strains of mice. […] Lethality from bone marrow suppression occurs in the 14-25 day region due to the life cycle of approximately 2 weeks for RBC and inability to replace them without HSCs
7.73 Gy radiation is used to ablate bone marrow HSCs in the C3H strain of mice.

In data set [9] the test system is macrophages co-cultured with fibroblasts. Description: Macrophage-fibroblast co-culture, CFSE proliferation. In kind it is cell-based, mouse. The source says:
Cell proliferation was used as a sensitive in vitro endpoint because it can also be used to detect cell death. Cells were labeled with the fluorescent dye CF SE, which becomes diluted as the cells proliferate over time. We performed a series of experiments using tumor cell lines to validate the assay and determine the effective ratios of macrophages to target cells (not shown) before performing experiments with normal early-pass murine embryo fibroblasts. To study the effects of BCN-512 and macrophages on fibroblast cell proliferation and death, irradiated (2 or 6 Gy) macrophages and fibroblasts were added at various ratios. Normal mouse fibroblasts were labelled with CF SE and added to the macrophages in 96-well plates. BCN-512 (10 μM) and/or LPS (1 μg/mL) or diluent were then added, and the plates cultured for 1, 2, or 3 days. The purpose of the LPS was to activate the macrophages. BCN-512 was added 1 hour after LPS, which was added immediately after irradiation

SMILES strings stand for the structures.

As to `O=[N+]([O-])c1ccc(S(=O)(=O)N2CCN(c3ccccc3)CC2)cc1` [BCN512, 1-[(4-nitrobenezene)sulfonyl]-4-phenyl piperazine], the “amount of pro-inflammatory cytokines released” value in data set [1] is recorded as “decreases”. For the same compound, the “number of tumor colonies (lung nodules)” value in data set [2] is reported as “did not increase the number of tumor colonies”. Also, in data set [3], the “Wnt target gene expression” value was “induces the WINT target gene expression”. Also, the lung organoid growth entry in data set [4] is “mitigated the radiation damage and induced lung organoid growth”. Besides, in data set [5], the “Average Draize score Edema” value was determined as 0, the “Average Draize score Edema Site 2” value is 0, the “Average Draize score Edema Site 3” value was 0.5714 and the “Average Draize score Edema Site 4” value is 0. Further, in [5], the “Average Draize score Edema Site 5” value is 0.8571, the “Average Draize score Edema Site 6” value stood at 0, the “Average Draize score Erythema Site 2” value amounted to 0.4286 and the “Average Draize score Erythema Site 3” value is 1.429. For the same compound, in data set [5], the “Average Draize score Erythema Site 4” value is listed as 0.1429, the “Average Draize score Erythema Site 5” value is given as 1.571 and the “Average Draize score Erythema Site 6” value worked out at 0.8571. For the same compound, in data set [6], the highest level (Cmax) was 132 ng/mL and the Tmax was found to be 2 h. The luciferase activity result in [7] is “significantly increased luciferase activity”. In addition, the “lethality from bone marrow suppression” value in data set [8] (7.73 Gy TBI, C3H strain of mice) is “sufficient to prevent lethality from bone marrow suppression”. In addition, the “efficacy in total body irradiation experiments” value in data set [8] (Deoxycholate formulation, subcutaneously) is “good efficacy”. Further, the “toxicity of LPS-treated macrophages to fibroblasts” value in data set [9] (10 μM, LPS 1 μg/mL, ratios of 20:1 or 25:1) is “practically abolished the toxicity associated with LPS treatment”. The “increase of viable fibroblasts by irradiated macrophages” value in data set [9] (6 Gy macrophage irradiation, 3 days) was “seemed to neutralize this function”.
